According to patent US7906684B2, “Antioxidants” (Merck Patent Gesellschaft Mit Beschrankter Haftung, priority 2006, dated 2011):

Tests used:
[1] = lipid assay (2,2'-azobis(2-aminopropane) = ABAP assay), Bünger et al. method; settings: according to the Bünger et al. method
Text: (§1) A detailed description, besides the […] just described, for the lipid assay (or 2,2′-azobis(2-aminopropane)=ABAP assay) or the TEAC assay (TEAC=trolox equivalent antioxidant capacity) is also found in Bünger et al, International Journal of Cosmetic Science, 2006, 28, 135-146.

[2] = TEAC assay (trolox equivalent antioxidant capacity), Bünger et al. method; settings: according to the Bünger et al. method
Text: as §1

[3] = Photoconversion test, substance on roughened Perspex plates, sun simulation; assay type: physicochemical; settings: 0.75 mg/cm^−2 on roughened Perspex plates, FIG. 1
Method: The substance is applied to roughened Perspex plates (0.75 mg/cm^−2) and irradiated under sun simulation. The dose is to be understood as the absolute, unweighted total UV irradiation dose. After each irradiation step, the UV absorption of the sample is measured against placebo (placebo=Perspex plate with glycerol).

[4] = Photoconversion test, 4% solution in isopropyl myristate on Perspex support, simulated solar irradiation; assay type: physicochemical; settings: 2 μlcm^−2 on rough Perspex, Suntester 1 h 50 min, extracted with isopropanol, made up to 50 ml
Method: A 4% solution of the substance in isopropyl myristate is applied at a rate of 2 μlcm^−2 to a rough Perspex support. The sample is subjected to simulated solar irradiation in a Suntester for 1 h 50 min. After irradiation, the sample is extracted with 40 ml of isopropanol and made up to a precise volume of 50 ml. Compared with an unirradiated sample, an increase in absorbance at the substance maximum at 285 nm of 0.77 absorption units arises.

Row | increase in absorbance at the substance maximum at 285 nm compared with an unirradiated sample [4] [absorption units] | Compound | lipid assay [1] [%] | TEAC assay [2] [%] | UV absorption of the sample after irradiation, measured against placebo [3]
1 |  | COc1ccc(C(O)c2ccccc2)c(O)c1 (stereo not shown) [Compound (5), 2-(hydroxyphenylmethyl)-5-methoxyphenol] | 8 | 50 | increases in absorption power due to irradiation
2 | 0.77 | COc1ccc(C(O)c2ccccc2)cc1 (stereo not shown) [Compound (9), (4-methoxyphenyl)phenylmethanol] |  |  | 
